Experimental data from patent publication US20260048028A1, “Methods of Use for Disulfiram and Metabolites Thereof” (PS Therapy, Inc., priority 2022, published 2026).

Columns and labels:
[1] = tested on: IL-8 mRNA; test: IL-8 mRNA levels in Aspergillus flavus infected human corneal epithelial cells; type: cell-based; conditions: HCE cells infected with A. flavus spores
Protocol: 3 sets of human corneal epithelial (“HCE”) cells were plated and assayed for IL-8 mRNA levels as a control. 9 sets of HC cells were then infected with […] of Aspergillus flavus spores. 16 hours post infection the cells were assayed for IL-8 mRNA levels. 3 sets of HCE cells were then administered DSF in DMSO. Several hours following administration of each, IL-8 mRNA levels were assayed.
3 sets of HCE cells were plated and assayed for IL-8 mRNA levels as a control. 9 sets of HC cells were then infected with […] of Aspergillus flavus spores. 16 hours post infection the cells were assayed for IL-mRNA levels. 3 sets of HCE cells were then each administered NaDDC in water. Several hours following administration of each, IL-8 mRNA levels were assayed.

[2] = tested on: tumor necrosis factor alpha (TNFα); test: Alkali-burn injury in mice, RT-PCR expression of TNFα in eyes; type: in vivo; conditions: RT-PCR of enucleated eyes after 7 days of topical 300 μM NaDDC three times daily
Protocol: (§1) C57BL/6 mice were divided into three groups, control group 1 (n=6), group 2 (n=6) and group 3 (n=3). Each group consisted of mice with their left eye (“LE”) left undisturbed as a control, while the right eye (“RE”) of all mice in each group was subjected to alkali burn. Prior to inducing alkali burn, mice were anesthetized using an injection of an anesthetic cocktail containing ketamine (20 mg/ml) and xylazine (4 mg/ml) at a dose of approximately […] per 25 g mouse. Topical analgesia was provided using proparacaine hydrochloride (0.5%) on the corneal surface. A round filter paper piece (˜2 mm in diameter) was soaked in a 0.5 M NaOH solution. […]
(§2) On the 7th day following the alkali burn, corneal images were captured using slit microscopy to monitor changes in corneal opacity and neovascularization. The degree of corneal injury was evaluated and scored in a blinded manner by trained observers. Corneal opacity was evaluated using a grading scale ranging from 0 to 4, where 0 represented a completely clear cornea, 1 indicated slight haziness with the iris and pupil easily visible, 2 denoted slight opacity with detectable iris and pupil, 3 indicated significant opacity with difficulty in detecting pupils, and 4 represented complete opacity with no view of the pupil. […]

[3] = tested on: transforming growth factor beta 1 (TGFβ1); test: Alkali-burn injury in mice, RT-PCR expression of TGFβ1 in eyes; type: in vivo; conditions: RT-PCR of enucleated eyes after 7 days of topical 300 μM NaDDC three times daily
Protocol: as §1, §2

[4] = tested on: intercellular adhesion molecule 1 (ICAM1); test: Alkali-burn injury in mice, RT-PCR expression of ICAM1 in eyes; type: in vivo; conditions: RT-PCR of enucleated eyes after 7 days of topical 300 μM NaDDC three times daily
Protocol: as §1, §2

[5] = tested on: IL-6 mRNA; test: IL-6 mRNA levels in HCE cells under hyperosmolarity; type: cell-based, human; conditions: 400 milliosmoles, 6 hours post hyperosmolarity induction, −control 290 milliosmoles
Protocol: Sets of HCE cells were plated in iso-osmotic solutions (290 milliosmoles) […] and assayed for IL-8 and IL-6 mRNA levels as a control. Sets of HC cells were subjected to hyperosmolarity conditions (i.e. placed in a solution having an osmolarity of 400 milliosmoles) either with or without NaDDC. 6 hours post hyperosmolarity induction the cells were assayed for IL-mRNA levels.

[6] = tested on: gasdermin D (GSDMD); test: Alkali-burn injury in mice, RT-PCR expression of GSDMD in eyes; type: in vivo; conditions: RT-PCR of enucleated eyes after 7 days of topical 300 μM NaDDC three times daily
Protocol: as §1, §2

[7] = tested on: C57BL/6 mice; test: Alkali-burn injury in mice, slit-lamp scoring of corneal opacity and neovascularization; type: in vivo; conditions: topical three times daily for 7 days (NaDDC 300 μM); for corneal opacity mean score: grading scale 0 to 4, day 7 after alkali burn; for neovascularization score: scale 0 to 3, day 7 after alkali burn
Protocol: C57BL/6 mice were divided into three groups, control group 1 (n=6), group 2 (n=6) and group 3 (n=3). Each group consisted of mice with their left eye (“LE”) left undisturbed as a control, while the right eye (“RE”) of all mice in each group was subjected to alkali burn. Prior to inducing alkali burn, mice were anesthetized using an injection of an anesthetic cocktail containing ketamine (20 mg/ml) and xylazine (4 mg/ml) at a dose of approximately […] per 25 g mouse. Topical analgesia was provided using proparacaine hydrochloride (0.5%) on the corneal surface. A round filter paper piece (˜2 mm in diameter) was soaked in a 0.5 M NaOH solution. The NaOH-soaked filter paper was gently placed on the central cornea of the RE for precisely 30 seconds, generating an acute alkali burn. Following the removal of the filter paper, the RE was flushed gently with 10 ml of 1×PBS using a 10 ml syringe to ensure thorough removal of residual NaOH. Immediately after the eye flush, the treatment application was initiated for Group 2 and Group 3 mice. Group 1 was left untreated. For Group 2, a drop of 300 μM NaDDC was topically applied to the cornea of the RE. For Group 3, the RE was topically treated with commercially available prednisolone. The treatment was repeated three times daily for a duration of 7 days.
On the 7th day following the alkali burn, corneal images were captured using slit microscopy to monitor changes in corneal opacity and neovascularization. The degree of corneal injury was evaluated and scored in a blinded manner by trained observers. Corneal opacity was evaluated using a grading scale ranging from 0 to 4, where 0 represented a completely clear cornea, 1 indicated slight haziness with the iris and pupil easily visible, 2 denoted slight opacity with detectable iris and pupil, 3 indicated significant opacity with difficulty in detecting pupils, and 4 represented complete opacity with no view of the pupil. The degree of neovascularization was scored on a scale of 0 to 3, with 0 indicating no new vessels, 1 representing new vessels present at the corneal limbus, 2 denoting new vessels extending from the corneal limbus toward the corneal centre, and 3 indicating new vessels spanning the entire corneal centre. At the end of the treatment period, mice from control group 1 and NaDDC treated group 2 were sacrificed and the eyes were enucleated for further analysis, including RT-PCR studies, to investigate the expression levels of tumor necrosis factor alpha (“TNFα”), gasdermin D (“GSDMD”), intercellular adhesion molecule 1 (“ICAM1”) and transforming growth factor beta 1 (“TGFβ1”).

[8] = DSF in DMSO given 16 hours post infection
[9] = NaDDC in water given 16 hours post infection

CCN(CC)C(=S)SSC(=S)N(CC)CC [DSF, 1,1′-disulfanediylbis(N,N-diethylmethanethioamide), reference compound]
IL-8 mRNA levels (% change from uninfected) [1, 8]: 21.2%
IL-8 mRNA levels (% reduction from water) [1, 8]: 88.5%

CCN(CC)C(=S)[S-].[Na+] [NaDDC, sodium;N,N-diethylcarbamodithioate]
expression level of TNFα, % of untreated control group [2]: 8%
TGFβ1 expression, % of untreated control group [3]: 28%
ICAM1 expression, % of untreated control group [4]: 5%
IL-6 mRNA levels (% increase from −control) [5]: 100%
GSDMD expression, % of untreated control group [6]: 42%
corneal opacity mean score [7]: 0.83
neovascularization score [7]: 0
IL-8 mRNA levels (% increase from uninfected) [1, 9]: 10.5%
IL-8 mRNA levels (% reduction from water) [1, 9]: 85.19%

C[C@]12C=CC(=O)C=C1CC[C@@H]1[C@@H]2[C@@H](O)C[C@@]2(C)[C@H]1CC[C@]2(O)C(=O)CO [prednisolone, reference compound]
corneal opacity mean score [7]: 2.67
neovascularization score [7]: 0
